{
  "source": "patent US20220184020A1",
  "about": "“Polyphenols as Modulators of Platelet Function” (Northeastern University, priority 2019, published 2022)",
  "key": {"MCF7 cell line": {"tested_on": "MCF7 cell line", "conditions": "MCF7 after treatment with RA; versus all other genes; cited from earlier work"}, "platelets [1]": {"tested_on": "platelets", "test": "Platelet aggregation by turbidimetric aggregometry", "type": "cell-based, human", "conditions": "PRP pre-treated with RA for 1 hour; collagen 1 μg/mL", "experimental": "(§1) To validate the predictive power of the developed framework, direct experimental evidence of the predicted mechanistic role of Rosmarinic acid (RA) in VD was sought. […] Therefore, whether RA influenced platelet activation in vitro was evaluated. As platelets can be stimulated through different activation pathways, RA effects can, in principle, occur in any of them. To test these different possibilities, platelets were pretreated with RA and then activated with: 1) glycoprotein VI by collagen or collagen-related peptide (Collagen/CRPXL); 2) protease-activated receptors-1,4 by thrombin receptor activator peptide-6 (TRAP-6); 3) prostanoid thromboxane receptor by the thromboxane A2 analogue (U46619); and 4) P2Y1/12 receptor stimulation by adenosine diphosphate (ADP). […] Platelet aggregation was measured by turbidimetric aggregometry. […] Platelet aggregation was monitored for 6 minutes at 37° C. with a stir speed of 1000 rpm and the maximum extend of aggregation recorded using AGGRO/LINK®8 software. In some cases, dense granule release was simultaneously recorded by supplementing samples with Chrono-Lume® (Chrono-Log®, 395) according to the manufacturer's instructions."}, "platelets [2]": {"tested_on": "platelets", "test": "Platelet functions after ADP stimulation (control, distant receptor)", "type": "cell-based, human", "conditions": "stimulant whose receptor is distant from the RA-VD-module (ADP)", "experimental": "as §1, with “instructions. […] Percent-positive cells were determined by gating on fluorescence intensity compared to unstimulated samples.” for “instructions.”"}},
  "data": [
    {"smiles": "O=C(/C=C/c1ccc(O)c(O)c1)O[C@H](Cc1ccc(O)c(O)c1)C(=O)O", "note": "[rosmarinic acid]", "values": [
      {"measurement": "perturbation scores for genes directly regulated by NFE2L2", "setting": "MCF7 cell line", "result": "higher perturbation scores"},
      {"measurement": "collagen-mediated platelet aggregation", "setting": "platelets [1]", "result": "inhibits"},
      {"measurement": "platelet functions", "setting": "platelets [2]", "result": "did not affect"}
    ]}
  ]
}
